Results published in patent US20200003760A1, “IN-VITRO METHODS FOR CLASSIFYING DRUGS ACCORDING TO THEIR POTENTIAL TO CAUSE LIVER CELL INJURY” (Board of Trustees of Michigan State University, priority 2018, published 2020).
“Also recorded” adds a separate entry of the source. Read-outs that look alike come from different tables or passages of the source. Blank lines part the entries; values can stand above or below the molecule they belong to.

Assays:
[1] = cited from earlier work
[2] = Logistic regression classification model: probability that a drug is associated with IDILI; design: species or system human; conditions: for Estimated probability: probability that drug is associated with IDILI, covariates Deltadiff, EC50 VEH, EC50 TNF, Delta VEH, Cmax, optimal cutoff 0.46
Text: Classification modeling using defined covariates. In the second phase of analysis, classification models were developed using logistic regression with covariates as independent variables in the analysis and known IDILI classification as the dependent variable. A model selection process was used to determine if a covariate or set of covariates is associated with IDILI liability. Covariates were first evaluated individually to determine how well a particular covariate classified drugs according to IDILI liability, and then covariates were evaluated in combination. Combinations of covariates were selected to maximize the ability of the model to distinguish between drugs associated or not with IDILI. Specifically, covariates that describe changes in efficacy (Delta, Deltadiff, etc.) were paired with covariates that describe changes in potency (EC50, EC10, R10, etc.) to find covariate combinations that led to models that most accurately discriminated between drugs that are and are not associated with IDILI. […] The logistic regression models follow the equation: […]
where ŷi is the calculated (predicted) probability that drug i with a vector of covariates xi is associated with IDILI. The β coefficients (β0, the regression intercept; and βi, the regression slopes for model covariates, xi) were derived from the logistic regression models using 1) combinations of the covariates (xi) generated by concentration-response modeling for each of the 24 drugs evaluated in this study, and 2) the true IDILI classification for the dependent variable yi (i.e., 1 for IDILI+drugs and 0 for IDILI-drugs). […] This occurs when a covariate almost perfectly separates observations into the appropriate categories. […] When separation or quasi-complete separation occurs, use of the standard method (i.e., maximum likelihood estimation) provides biased, unreliable estimates of βi.
Receiver operating characteristic (ROC) analysis. In the third phase of the statistical approach, the classification models, generated as logistic regression models using single covariates or combinations of covariates, were evaluated by ROC analysis to determine which model and corresponding sets of covariates led to the most accurate classification of drugs according to their potential to cause IDILI. An ROC curve was created for each model by graphing the true positive rate (sensitivity; i.e., proportion of drugs correctly classified as associated with IDILI) against the false positive rate (1-specificity; i.e., proportion of drugs incorrectly classified as associated with IDILI) at various probability cutoff thresholds (k). […] An area under the curve (AUC) and confidence interval was computed for each ROC curve (where each logistic regression model has one ROC curve). […] Corresponding to each ROC curve is an optimal threshold value (k*), the threshold yielding the highest point of accuracy on the curve (i.e., the point nearest the point […] on the curve). Thus, each ROC curve has a corresponding AUC and an optimal cutoff (k*) that corresponds to the highest point of accuracy on that ROC curve.

HepG2 cells = assay: Drug/cytokine-induced cytotoxicity (% LDH release) concentration-response in HepG2 cells; assay type: cell-based, human; design: key to Deltadiff: LDH release percentage points (drug/TNF Delta minus drug/VEH Delta); conditions: for R10 IFN: with IFN; for R10 TNF: with TNF; for R10 TNF/IFN / EC10 TNF/IFN: with TNF and IFN; for Deltadiff: Delta of drug/TNF curve minus Delta of drug/VEH curve (LDH percentage); for cytotoxic interaction of drug with TNF: TNF 10 ng/ml; for cytotoxicity of drug on its own (LDH release): absence of cytokines; for Emax: Homo sapiens; for TNF change: D10TNF − D10VEH; for EC10 TNF: with TNF 10 ng/ml
Procedure: Cells were passed or used for experiments when they reached approximately 80% confluence. Cells were used at passage 6-16.
HepG2 cells were plated at a density of 4×10^4 cells per well in black-walled, 96-well, tissue culture plates and were allowed to attach overnight before being treated with compounds. Drugs were reconstituted in vehicles consisting of sterile water or DMSO (concentration less than 0.5%). Cells were treated with various concentrations of the drug or its vehicle (control) alone or in combination with the cytokines TNF (10 ng/ml) and/or IFN (10 ng/ml) or their PBS vehicle (VEH). Cytotoxicity was evaluated as lactate dehydrogenase (LDH) activity released from the cells into culture medium using the Homogeneous Membrane Integrity Assay kit from Promega (Madison, Wis.).
Concentration-response curves were generated for 24 drugs, 14 of which are associated with human IDILI and 10 of which are not. […] This was necessary because four-parameter logistic modeling used in the statistical analysis requires well defined, sigmoidal concentration-response curves. Cells were exposed to drug/cytokine combinations for 24 hours. For analysis of drug concentration-response data, concentrations of each drug were expressed as a fraction of its Cmax.
Defining covariates: four-parameter logistic model. In the first phase, variables (potential covariates) for use in the classification analysis were defined from the analysis of drug concentration-response data. Initially, a one-way analysis of variance (ANOVA) was used as an omnibus test to determine if a particular treatment (e.g. drug alone or in combination with TNF and/or IFN) caused a significant change in LDH release relative to baseline (i.e., LDH release in the absence of drug, hereafter designated “min”). The criterion for significance for the ANOVA was set at α=0.01. A 1% level of significance was used to rule out more vigorously marginal relationships between concentration and response.
where LDH(x) is the percentage of LDH released at a given concentration x; x=[drug]/Cmax; min=the % LDH release at 0 drug concentration (i.e., baseline); and max=the maximal LDH response (i.e., maximum % LDH release).
where D10 is a categorical variable related to reaching a threshold LDH response above which a drug is classified as positively associated with IDILI. D10 is defined as 0 if Delta<10% LDH release and as 1 if Delta≥10% LDH release.
The base covariate R10 represents the [drug]/Cmax value associated with an increase in 10 LDH percentage points above min for a particular treatment condition and was determined by the equation:
R10 was considered to be 0 when the Delta<10% LDH (i.e. when D10=0).
EC50 quotient, EC10 quotient and R10 quotient represent the ratio between the EC50, EC10 or R10 of the drug/cytokine concentration-response curve and the respective value for the drug/VEH concentration-response curve. In some instances, the value derived from this calculation is indeterminate (i.e. when the denominator=0). In order to incorporate the quotient values into the classification models described below, the categorical variable “Q” was used to eliminate the possibility of the quotient being indeterminate. Q is defined as 0 if Delta VEH and/or Delta cytokine is <10% LDH and 1 if both Delta VEH and Delta cytokine are ≥10% LDH. […] The same condition was applied for calculation of EC10 quotient and R10 quotient.
Deltadiff represents the difference between the Delta of the drug/cytokine concentration-response curve and the Delta of the drug/VEH curve. In other words, Deltadiff=(Delta cytokine)−(Delta VEH). FIG. 1 graphically illustrates several of the covariates defined above. […] In addition to the covariates derived from the concentration-response curves, the maximal therapeutic plasma drug concentration (Cmax) in human patients was used in some models (Table 1).

[3] = cited from earlier work; for True classification: IDILI in human patients; for IDILI liability: criteria of Xu et al. (2008)
[4] = maximal plasma concentration after pharmacologic dosing in human patients
[5] = 10 percent increase in LDH response above min, 0 when D10 = 0, drug alone (VEH)
[6] = 10 percent increase in LDH response above min, 0 when D10 = 0
[7] = HepG2, categorical, Delta threshold 10 LDH percentage points, drug alone (VEH), read-out: D10
[8] = HepG2, maximal LDH response, drug alone (VEH), 24 h, read-out: max
[9] = value corresponding to 10% of Delta, NA = no significant increase

Structure (SMILES): O=C(O)[C@H]1/C(=C/CO)O[C@@H]2CC(=O)N21 [Clavulanate]
Cmax [1, 4]: 12 µM
classification by the best-performing model ([2]; optimal cutoff): correctly as IDILI1
Estimated probability [2]: 0.9509
R10 (HepG2 cells; [5]): 0 [drug]/Cmax
R10 IFN (HepG2 cells; [6]): 0 [drug]/Cmax
R10 TNF (HepG2 cells; [6]): 0 [drug]/Cmax
R10 TNF/IFN (HepG2 cells; [6]): 0 [drug]/Cmax
Deltadiff (HepG2 cells): 3.1
cytotoxic interaction of drug with TNF (HepG2 cells; HepG2, 24 h): interacted only weakly with TNF
cytotoxic interaction of drug with TNF (HepG2 cells; HepG2, 24 h, listed as clavulanate): synergized with TNF to cause cytotoxicity; also recorded: small but statistically significant
cytotoxicity of drug on its own (LDH release) (HepG2 cells; HepG2, 24 h): caused no cytotoxicity on their own
Emax (HepG2 cells; [7]): < 10%
Emax (HepG2 cells; [8]): 17.4%
TNF change (HepG2 cells; categorical): 0
True classification [3]: IDILI+
IDILI liability [3]: IDILI+
pattern of liver injury in humans ([3]; human patients): cholestatic pattern of injury

Structure (SMILES): CC[C@H]1OC(=O)[C@H](C)[C@@H](O[C@H]2C[C@@](C)(OC)[C@@H](O)[C@H](C)O2)[C@H](C)[C@@H](O[C@@H]2O[C@H](C)C[C@H](N(C)C)[C@H]2O)[C@](C)(O)C[C@@H](C)CN(C)[C@H](C)[C@@H](O)[C@]1(C)O [Azithromycin]
Cmax [1, 4]: 0.5 µM
Estimated probability [2]: 0.1276
R10 (HepG2 cells; [5]): 0 [drug]/Cmax
R10 IFN (HepG2 cells; [6]): 0 [drug]/Cmax
R10 TNF (HepG2 cells; [6]): 0 [drug]/Cmax
R10 TNF/IFN (HepG2 cells; [6]): 333.9 [drug]/Cmax
Deltadiff (HepG2 cells): 0
synergy with cytokines to kill HepG2 cells (HepG2 cells; HepG2, 24 h, TNF and/or IFN): modestly cytotoxic in the presence of TNF/IFN
Emax (HepG2 cells; [7]): < 10%
Emax (HepG2 cells; [8]): 11.6%
TNF change (HepG2 cells; categorical): 0
EC10 TNF/IFN (HepG2 cells; [9]): 59.2 [drug]/Cmax
True classification [3]: IDILI−
IDILI liability [3]: IDILI−

Structure (SMILES): CN[C@H]1CC[C@@H](c2ccc(Cl)c(Cl)c2)c2ccccc21 [Sertraline]
Cmax [1, 4]: 0.06 µM
Estimated probability [2]: 0.1275
R10 (HepG2 cells; [5]): 0 [drug]/Cmax
R10 IFN (HepG2 cells; [6]): 0 [drug]/Cmax
R10 TNF (HepG2 cells; [6]): 0 [drug]/Cmax
R10 TNF/IFN (HepG2 cells; [6]): 0 [drug]/Cmax
Deltadiff (HepG2 cells): 0
Emax (HepG2 cells; [7]): < 10%
Emax (HepG2 cells; [8]): 14%
TNF change (HepG2 cells; categorical): 0
True classification [3]: IDILI−
IDILI liability [3]: IDILI−

Structure (SMILES): COc1ccc2cc([C@H](C)C(=O)O)ccc2c1 [Naproxen]
Estimated probability [2]: 0.8589
R10 (HepG2 cells; [5]): 60.5 [drug]/Cmax
R10 IFN (HepG2 cells; [6]): 65.9 [drug]/Cmax
R10 TNF (HepG2 cells; [6]): 24.3 [drug]/Cmax
R10 TNF/IFN (HepG2 cells; [6]): 18.4 [drug]/Cmax
Deltadiff (HepG2 cells): −9.3
Emax (HepG2 cells; [7]): > 10%
Emax (HepG2 cells; [8]): 102%
EC10 (HepG2 cells; value corresponding to 10% of Delta (max-min), drug alone (VEH), NA = no significant increase): 59.8 [drug]/Cmax
EC10 IFN (HepG2 cells; value corresponding to 10% of Delta, with IFN 10 ng/ml, NA = no significant increase): 64.8 [drug]/Cmax
EC10 TNF (HepG2 cells; [9]): 23.6 [drug]/Cmax
EC10 TNF/IFN (HepG2 cells; [9]): 17.3 [drug]/Cmax
True classification [3]: IDILI+

Structure (SMILES): CC(C)(O)C(=O)Nc1ccc([N+](=O)[O-])c(C(F)(F)F)c1 [2-hydroxyflutamide]
Cmax ([1]; metabolite of flutamide in vivo): 5.74 µM
calculated probability for association with IDILI ([2]; best-performing classification model): 0.999

Continued, in another order:

Estimated probability [2]: 0.1278
Structure (SMILES): CS(=O)(=O)c1ccc(C2=C(c3ccccc3)C(=O)OC2)cc1 [Rofecoxib]
Cmax [1, 4]: 1 µM
R10 (HepG2 cells; [5]): 0 [drug]/Cmax
R10 IFN (HepG2 cells; [6]): 0 [drug]/Cmax
R10 TNF (HepG2 cells; [6]): 0 [drug]/Cmax
R10 TNF/IFN (HepG2 cells; [6]): 0 [drug]/Cmax
Deltadiff (HepG2 cells): 0
Emax (HepG2 cells; [7]): < 10%
Emax (HepG2 cells; [8]): 12.2%
TNF change (HepG2 cells; categorical): 0
True classification [3]: IDILI−
IDILI liability [3]: IDILI−

Estimated probability [2]: 1
Structure (SMILES): CS(=O)(=O)Nc1ccc([N+](=O)[O-])cc1Oc1ccccc1 [Nimesulide]
Cmax [1, 4]: 21.1 µM
R10 (HepG2 cells): 0 [drug]/Cmax
R10 IFN (HepG2 cells; [6]): 0 [drug]/Cmax
R10 TNF (HepG2 cells; [6]): 32.0 [drug]/Cmax
R10 TNF/IFN (HepG2 cells; [6]): 33.5 [drug]/Cmax
Deltadiff (HepG2 cells): 92.3
cytotoxic interaction of drug with TNF (HepG2 cells; HepG2, 24 h): synergized with TNF to cause cytotoxicity
cytotoxicity of drug on its own (LDH release) (HepG2 cells; HepG2, 24 h): caused no cytotoxicity on their own
Emax (HepG2 cells; HepG2, read-out: D10): < 10%
Emax (HepG2 cells; [8]): 14.6%
TNF change (HepG2 cells; categorical): 1
EC10 TNF (HepG2 cells; [9]): 31.8 [drug]/Cmax
EC10 TNF/IFN (HepG2 cells; [9]): 33.2 [drug]/Cmax
